Test results from patent US9567367B2, “Synthetic peptides for treatment of bacterial infections” (priority 2012, dated 2017).
Read-outs that look alike come from different tables or passages of the source. Square brackets hold non-standard residues; d marks the D form. Ends that are not written are not given here.

Columns and labels:
[1] = tested on: E. coli strain 018:K1; test: E. coli peritonitis, survival; type: in vivo, BALB/c mice
[2] = in vivo
[3] = tested on: polymicrobial infection; test: Cecal ligation and puncture (CLP) polymicrobial infection, survival; type: in vivo, mice; settings: moxifloxacin alone, high dose (LD90) at 12 hours post CLP
[4] = tested on: S. pyogenes; set-up: species or system BALB/c mice; settings: mouse, in vivo
[5] = tested on: Streptococcus pneumoniae; type: in vivo, BALB/c mice; settings: ceftriaxone alone 1 mg/kg i.p. (suboptimal) at 24 hours post infection
Protocol: Treatment with the peptide D-Ala-p2TA was adjunct to antibiotic treatment, and was given at a delayed time point, when the infection was already established.
When the animals are treated with ceftriaxone alone, administered intraperitoneal (i.p.) at a suboptimal dose of LD25 (1 mg/kg), given at 24 hours after the infection, survival rates increased to 20%. However, when the peptide D-Ala-p2TA (at 5 mg/kg) was given in combination with the antibiotics, 24 hours post infection, substantial increase in survival, to 50%, was detected (see FIG. 17).
The correlation between survival benefit and different doses of the peptide D-Ala-p2TA was investigated when the S. pneumoniae infected animals (n=10) received a combination of a fixed dose of antibiotics (ceftriaxone, at a suboptimal dose of 1 mg/kg, administered i.p.) and different doses of the peptide D-Ala-p2TA, given 2 minutes after antibiotic treatment at 24 hours post infection. Under these experimental conditions (see FIG. 18), non-treated mice died rapidly, starting at day 2, and by day 3, all animals were already dead. Antibiotic treatment alone did provide a minor change in survival, bringing it to 20%.

Compound: H-D-Ala-Ser-Pro-Met-Leu-[U-^14C]Val-Ala-Tyr-Asp-D-Ala-OH [[^14C]-D-Ala-p2TA]
- time of peak accumulation in lymphatic organs (lymph nodes) (5 mg/kg single i.v., radioactivity): 20 min
- ratio of lymph nodes to plasma (4 minutes post infusion): greater than 1
- ratio of radioactivity in spleen compared to plasma (20 min after injection): 6 fold
- levels in lymph nodes vs plasma (20 minutes): 22 fold
- levels in lymph nodes vs plasma (24 hours post dosing): greater than 3 fold
- ratio of radioactivity in spleen compared to plasma (24 hours post injection): 3 fold
- levels in lymph nodes vs plasma (for 2 hours): more than 5 fold
- start of accumulation in lymphatic organs (post injection, 5 mg/kg single i.v.): 4 min

Compound: [dA]ASMDYPVL[dA] [scrambled peptide]
- survival rate ([1]; scrambled peptide control): comparable to the saline treated control

Compound: CSCC[C@H](NC(=O)[C@@H]1CCCN1C(=O)[C@@H](N)CO)C(=O)N[C@@H](CC(C)C)C(=O)N[C@H](C(=O)N[C@@H](C)C(=O)N[C@@H](Cc1ccc(O)cc1)C(=O)N[C@@H](CC(=O)O)C(=O)O)C(C)C [p2TA, SPMLVAYD]
- half-life [2]: 1 to 2.6 min

Compound: COc1c(N2C[C@@H]3CCCN[C@@H]3C2)c(F)cc2c(=O)c(C(=O)O)cn(C3CC3)c12 [moxifloxacin]
- survival rate [3]: 22%

Compound: CO/N=C(\C(=O)N[C@@H]1C(=O)N2C(C(=O)[O-])=C(C[N+]3(C)CCCC3)CS[C@H]12)c1csc(N)n1 [cefepime]
- overall survival ([1]; cefepime alone, suboptimal 5 mg/kg i.m. 4 hours after challenge): 20%

Compound: CO/N=C(\C(=O)N[C@@H]1C(=O)N2C(C(=O)O)=C(CSc3nc(=O)c(=O)[nH]n3C)CS[C@H]12)c1csc(N)n1 [ceftriaxone]
- survival [4]: 70%
- survival [5]: 20%
